This passage reports Ki results from ChEMBL document CHEMBL1149221, “Terephthalamide derivatives as mimetics of the helical region of Bak peptide target Bcl-xL protein” (Bioorg Med Chem Lett, 2004).

Molecules are shown by their SMILES. Where only a bound is given, the exact number is not on record here.

The Ki is a dissociation constant, usually derived from enzyme kinetics or from competition with a known ligand. Lower therefore signals higher affinity.

The test deals with Bcl-2-like protein 1 (Homo sapiens, UniProt Q07817). As to the kind of experiment: Binding affinity for Bcl-xL was assessed by a fluorescence polarization assay using a fluorescently labeled 16-mer Bak-peptide.
Bcl-2-like protein 1, sequence (Q07817 whole entry): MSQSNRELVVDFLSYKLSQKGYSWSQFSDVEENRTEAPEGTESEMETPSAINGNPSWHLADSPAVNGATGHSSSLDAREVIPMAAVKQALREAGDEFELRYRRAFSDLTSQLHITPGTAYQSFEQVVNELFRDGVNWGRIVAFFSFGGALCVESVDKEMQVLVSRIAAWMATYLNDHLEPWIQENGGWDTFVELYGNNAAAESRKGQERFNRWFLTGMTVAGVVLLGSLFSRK
As for `COC(=O)CNC(=O)c1ccc(C(=O)N(C)C)cc1`, the Ki is above 30 µM.
The compound `CC(C)C[C@H](NC(=O)c1ccc(C(=O)N(C(C)C)C(C)C)cc1Oc1ccccc1)C(=O)O` yielded a Ki of 1.01 µM.
With `CC(C)C[C@H](NC(=O)c1ccc(C(=O)N(CC(C)C)C(C)C(=O)O)cc1OC(C)C)C(=O)O` (stereo partly specified) the figure was above 30 µM.
In the case of `CC(C)C[C@H](NC(=O)c1ccc(C(=O)N(CC(C)C)C(C(=O)O)C(C)C)cc1OC(C)C)C(=O)O` (stereo partly specified), the Ki was above 30 µM.
The value for `COC(=O)[C@H](C)NC(=O)c1ccc(C(=O)N(C(C)C)C(C)C)cc1OC(C)C` was 11 µM.
With `CC(C)CC(NC(=O)c1ccc(C(=O)N[C@@H](CC(C)C)C(=O)O)c(Oc2ccccc2)c1)C(=O)O` (stereo partly specified) the figure was above 30 µM.
Compound `CC(C)C[C@H](NC(=O)c1ccc(C(=O)N(C(C)C)C(C)C)cc1Oc1cccc2ccccc12)C(=O)O` gave a Ki of 7.63 µM.
Compound `COC(=O)[C@@H](NC(=O)c1ccc(C(=O)N(C(C)C)C(C)C)cc1OC(C)C)C(C)C` displayed a Ki of 5.85 µM.
The value for `COC(=O)[C@@H](NC(=O)c1ccc(C(=O)N(C(C)C)C(C)C)cc1OC(C)C)c1ccccc1` was 10.9 µM; that for `COC(=O)[C@@H](CC(C)C)NC(=O)c1ccc(C(=O)N(C(C)C)C(C)C)cc1OC` was 1.78 µM.
`CC(C)CC(NC(=O)c1ccc(C(=O)N[C@@H](CC(C)C)C(=O)O)c(Oc2cccc3ccccc23)c1)C(=O)O` (stereo partly specified) came in with a Ki above 30 µM.
